Measurements: US20250353864A1, “INDAZOLE CONTAINING MACROCYCLES AND THEIR USE” (BLOSSOMHILL THERAPEUTICS, INC., priority 2022, published 2025)

Assays:
Assay type in all cases: biochemical
ALK = ALK (Homo sapiens (Human), UniProt Q9UM73); experiment: HotSpot radiometric kinase assay, inhibition of ALK kinase activity; settings: 10 μM ATP
Protocol: Briefly, specific kinase/substrate pairs along with required cofactors were prepared in reaction buffer; 20 mM Hepes pH 7.5, 10 mM […], 1 mM EGTA, 0.02% Brij35, 0.02 mg/ml BSA, 0.1 mM Na3VO4, 2 mM DTT, 1% DMSO. Compounds were delivered into the reaction, followed […] later by addition of a mixture of ATP (Sigma, St. Louis MO) and ^33P ATP (Perkin Elmer, Waltham MA) to a final concentration of 10 μM. Reactions were carried out at room temperature for 120 min, followed by spotting of the reactions onto P81 ion exchange filter paper (Whatman Inc., Piscataway, NJ). Unbound phosphate was removed by extensive washing of filters in 0.75% phosphoric acid. […] IC50 values and curve fits were obtained using Prism (GraphPad Software).

CLK1 = CLK1 (Homo sapiens (Human), UniProt P49759); experiment: Inhibition of CLK1 kinase activity evaluated at Nanosyn (ADP-Glo); settings: ADP-Glo luminescence
In short: (§1)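 Percent inhibition derived from luminescent ADP detection (ADP-Glo), normalised to DMSO-only and enzyme-free wells. Reactions ran in HEPES pH 7.5 buffer with Mg2+, Triton X-100 and BSA, 1% DMSO, ATP-initiated, for an assay-specific time.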

CLK3 = CLK3 (Homo sapiens (Human), UniProt P49761); experiment: Inhibition of CLK3 kinase activity evaluated at Nanosyn (ADP-Glo); settings: ADP-Glo luminescence
In short: as §1

CLK4 = CLK4 (Homo sapiens (Human), UniProt Q9HAZ1); experiment: Inhibition of CLK4 kinase activity evaluated at Nanosyn (ADP-Glo); settings: ADP-Glo luminescence
In short: as §1

CLK2 = CLK2 (Homo sapiens (Human), UniProt P49760); experiment: Inhibition of CLK2 kinase activity evaluated at Nanosyn (ADP-Glo); settings: ADP-Glo luminescence
In short: as §1

[1] = target: EGFR L858R/T790M/C797S mutant (Homo sapiens (Human), UniProt P00533, C797S/L858R/T790M); experiment: HotSpot radiometric kinase assay, EGFR L858R/T790M/C797S mutant; settings: 10 μM ATP
In short: (§2)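 IC50 values derive from curve fits of 33P incorporation measured by P81 filter binding. ATP was 10 μM final; incubation lasted 120 min at room temperature after ~20 min compound preincubation.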

EGFR L858R mutant = EGFR L858R mutant (Homo sapiens (Human), UniProt P00533, L858R); experiment: HotSpot radiometric kinase assay, EGFR L858R mutant; settings: 10 μM ATP
In short: as §2

EGFR Δ746-750 mutant = EGFR Δ746-750 mutant (Homo sapiens (Human), UniProt P00533, DEL746-750); experiment: HotSpot radiometric kinase assay, EGFR Δ746-750 mutant; settings: 10 μM ATP
In short: as §2

EGFR (D770_N771insNPG) = EGFR (D770_N771insNPG) (Homo sapiens (Human), UniProt P00533, INS770NPG); experiment: HotSpot radiometric kinase assay, EGFR (D770_N771insNPG); settings: 10 μM ATP, read-out: EGFR (Δ770_N771insNPG) IC50
In short: as §2

[2] = target: EGFR Δ746-750/C797S mutant (Homo sapiens (Human), UniProt P00533, C797S/DEL746-750); experiment: HotSpot radiometric kinase assay, EGFR Δ746-750/C797S mutant; settings: 10 μM ATP
In short: as §2

EGFR WT = EGFR WT (Homo sapiens (Human), UniProt P00533); experiment: HotSpot radiometric kinase assay (Reaction Biology), EGFR WT; settings: 10 μM ATP
In short: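 Enzyme and substrate pairs were exposed to inhibitor for roughly 20 min before radiolabelled ATP (10 μM final) was introduced; the reaction proceeded 120 min at ambient temperature in pH 7.5 buffer with 1% DMSO, and phosphorylated product was captured on P81 filters for IC50 determination.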

EGFR L858R/T790M mutant = EGFR L858R/T790M mutant (Homo sapiens (Human), UniProt P00533, L858R/T790M); experiment: HotSpot radiometric kinase assay, EGFR L858R/T790M mutant; settings: 10 μM ATP
In short: as §2

EGFR L858R mutant, sequence (P00533 25-1210 L858R): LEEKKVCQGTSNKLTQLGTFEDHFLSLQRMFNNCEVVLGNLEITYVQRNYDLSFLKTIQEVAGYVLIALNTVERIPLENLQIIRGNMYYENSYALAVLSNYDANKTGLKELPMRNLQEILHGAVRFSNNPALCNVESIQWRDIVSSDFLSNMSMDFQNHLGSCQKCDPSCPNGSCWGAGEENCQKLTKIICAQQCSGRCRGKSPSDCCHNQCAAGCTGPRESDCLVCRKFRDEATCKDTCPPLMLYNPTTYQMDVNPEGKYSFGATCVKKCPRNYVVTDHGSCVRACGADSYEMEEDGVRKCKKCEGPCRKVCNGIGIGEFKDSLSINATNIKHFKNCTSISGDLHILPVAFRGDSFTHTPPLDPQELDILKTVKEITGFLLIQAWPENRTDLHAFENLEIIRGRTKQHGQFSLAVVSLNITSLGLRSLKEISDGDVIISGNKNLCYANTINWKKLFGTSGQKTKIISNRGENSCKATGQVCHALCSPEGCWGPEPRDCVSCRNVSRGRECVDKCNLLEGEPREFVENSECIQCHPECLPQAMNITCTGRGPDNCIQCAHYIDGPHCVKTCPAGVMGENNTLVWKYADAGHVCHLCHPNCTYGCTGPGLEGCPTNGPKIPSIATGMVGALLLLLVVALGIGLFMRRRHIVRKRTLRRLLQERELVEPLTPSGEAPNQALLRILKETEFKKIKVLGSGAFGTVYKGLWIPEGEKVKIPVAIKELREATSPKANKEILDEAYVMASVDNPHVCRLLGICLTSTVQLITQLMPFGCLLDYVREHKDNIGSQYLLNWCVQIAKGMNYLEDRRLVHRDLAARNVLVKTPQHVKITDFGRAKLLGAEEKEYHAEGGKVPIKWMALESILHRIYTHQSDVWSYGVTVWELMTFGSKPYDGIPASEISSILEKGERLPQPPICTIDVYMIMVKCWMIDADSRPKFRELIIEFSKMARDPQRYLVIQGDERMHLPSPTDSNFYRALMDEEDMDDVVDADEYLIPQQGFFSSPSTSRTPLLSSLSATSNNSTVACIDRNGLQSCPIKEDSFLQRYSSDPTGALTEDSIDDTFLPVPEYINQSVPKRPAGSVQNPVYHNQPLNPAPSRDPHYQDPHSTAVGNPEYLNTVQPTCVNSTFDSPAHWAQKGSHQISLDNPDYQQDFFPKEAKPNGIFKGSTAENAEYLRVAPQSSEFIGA
CLK4, sequence (Q9HAZ1 whole entry): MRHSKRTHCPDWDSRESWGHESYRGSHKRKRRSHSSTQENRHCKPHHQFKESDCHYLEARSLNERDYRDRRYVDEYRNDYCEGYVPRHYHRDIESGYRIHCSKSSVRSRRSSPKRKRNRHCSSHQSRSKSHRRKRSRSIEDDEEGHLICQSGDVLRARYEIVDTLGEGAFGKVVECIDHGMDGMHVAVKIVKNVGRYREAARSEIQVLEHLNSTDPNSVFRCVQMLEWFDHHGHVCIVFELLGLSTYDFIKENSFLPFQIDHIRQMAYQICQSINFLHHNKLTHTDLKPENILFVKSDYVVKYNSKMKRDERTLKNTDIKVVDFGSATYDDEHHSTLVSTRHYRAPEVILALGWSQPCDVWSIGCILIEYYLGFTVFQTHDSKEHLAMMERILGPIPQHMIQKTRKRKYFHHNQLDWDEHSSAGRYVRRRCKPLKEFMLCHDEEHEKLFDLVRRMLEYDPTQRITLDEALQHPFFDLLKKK
EGFR L858R/T790M/C797S mutant, sequence (P00533 25-1210 T790M/C797S/L858R): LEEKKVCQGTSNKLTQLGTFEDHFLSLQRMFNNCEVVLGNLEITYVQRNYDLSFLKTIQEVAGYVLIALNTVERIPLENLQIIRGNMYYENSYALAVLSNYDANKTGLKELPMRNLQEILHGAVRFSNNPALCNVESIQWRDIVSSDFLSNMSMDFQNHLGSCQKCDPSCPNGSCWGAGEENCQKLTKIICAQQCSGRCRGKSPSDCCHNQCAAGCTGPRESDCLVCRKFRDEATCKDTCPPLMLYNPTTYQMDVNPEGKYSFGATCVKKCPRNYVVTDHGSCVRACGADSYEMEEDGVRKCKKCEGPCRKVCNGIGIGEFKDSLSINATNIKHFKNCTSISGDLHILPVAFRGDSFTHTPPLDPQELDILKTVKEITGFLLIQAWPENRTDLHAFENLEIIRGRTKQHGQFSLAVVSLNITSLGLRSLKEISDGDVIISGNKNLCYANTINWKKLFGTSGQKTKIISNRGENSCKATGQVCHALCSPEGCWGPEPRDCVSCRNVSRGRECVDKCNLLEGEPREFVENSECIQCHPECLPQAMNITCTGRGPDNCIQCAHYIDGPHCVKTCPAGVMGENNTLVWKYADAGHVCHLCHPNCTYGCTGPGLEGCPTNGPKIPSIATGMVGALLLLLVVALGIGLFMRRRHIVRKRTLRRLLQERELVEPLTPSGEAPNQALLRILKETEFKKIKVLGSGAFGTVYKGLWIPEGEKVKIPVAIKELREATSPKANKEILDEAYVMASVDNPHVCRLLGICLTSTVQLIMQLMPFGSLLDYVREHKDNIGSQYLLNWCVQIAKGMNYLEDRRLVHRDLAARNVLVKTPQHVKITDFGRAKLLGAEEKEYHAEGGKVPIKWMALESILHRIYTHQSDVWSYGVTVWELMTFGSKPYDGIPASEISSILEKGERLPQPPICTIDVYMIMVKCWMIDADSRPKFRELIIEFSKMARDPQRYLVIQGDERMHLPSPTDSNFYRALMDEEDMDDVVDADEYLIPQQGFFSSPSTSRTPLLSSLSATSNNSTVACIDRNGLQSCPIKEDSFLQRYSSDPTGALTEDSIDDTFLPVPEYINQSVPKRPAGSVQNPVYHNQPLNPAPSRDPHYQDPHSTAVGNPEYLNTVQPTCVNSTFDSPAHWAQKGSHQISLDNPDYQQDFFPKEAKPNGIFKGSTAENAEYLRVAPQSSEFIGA
EGFR WT, sequence (P00533 25-1210): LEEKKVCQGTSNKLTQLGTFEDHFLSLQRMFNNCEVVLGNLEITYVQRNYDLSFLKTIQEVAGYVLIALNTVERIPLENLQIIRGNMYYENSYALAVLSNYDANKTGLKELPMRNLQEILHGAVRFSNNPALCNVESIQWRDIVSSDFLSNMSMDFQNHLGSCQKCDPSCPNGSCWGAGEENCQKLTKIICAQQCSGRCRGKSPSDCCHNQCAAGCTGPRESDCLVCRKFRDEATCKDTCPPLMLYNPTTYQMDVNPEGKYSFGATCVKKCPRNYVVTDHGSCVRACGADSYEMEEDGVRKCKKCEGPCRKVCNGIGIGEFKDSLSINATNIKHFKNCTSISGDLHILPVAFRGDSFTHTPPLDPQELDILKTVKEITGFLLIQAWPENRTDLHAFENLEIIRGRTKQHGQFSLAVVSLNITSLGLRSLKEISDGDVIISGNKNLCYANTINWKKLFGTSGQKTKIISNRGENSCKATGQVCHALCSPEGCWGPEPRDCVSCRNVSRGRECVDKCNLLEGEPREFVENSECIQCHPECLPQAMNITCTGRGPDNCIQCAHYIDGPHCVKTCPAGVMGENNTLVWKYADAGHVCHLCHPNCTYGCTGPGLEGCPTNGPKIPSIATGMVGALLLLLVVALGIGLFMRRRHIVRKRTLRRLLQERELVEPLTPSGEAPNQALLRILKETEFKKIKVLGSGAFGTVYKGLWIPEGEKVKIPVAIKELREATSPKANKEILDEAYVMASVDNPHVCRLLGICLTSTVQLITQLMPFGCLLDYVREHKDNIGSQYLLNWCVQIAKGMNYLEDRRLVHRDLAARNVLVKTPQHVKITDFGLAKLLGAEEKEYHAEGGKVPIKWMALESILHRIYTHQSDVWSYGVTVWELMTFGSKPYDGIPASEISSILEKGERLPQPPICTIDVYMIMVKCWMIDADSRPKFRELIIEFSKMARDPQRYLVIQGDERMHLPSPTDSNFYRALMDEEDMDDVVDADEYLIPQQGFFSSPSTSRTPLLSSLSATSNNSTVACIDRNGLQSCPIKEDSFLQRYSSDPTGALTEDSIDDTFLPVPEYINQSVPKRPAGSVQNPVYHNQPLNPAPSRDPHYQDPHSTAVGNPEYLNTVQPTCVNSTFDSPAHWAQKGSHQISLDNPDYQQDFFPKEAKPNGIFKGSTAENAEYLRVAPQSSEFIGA
CLK2, sequence (P49760 whole entry): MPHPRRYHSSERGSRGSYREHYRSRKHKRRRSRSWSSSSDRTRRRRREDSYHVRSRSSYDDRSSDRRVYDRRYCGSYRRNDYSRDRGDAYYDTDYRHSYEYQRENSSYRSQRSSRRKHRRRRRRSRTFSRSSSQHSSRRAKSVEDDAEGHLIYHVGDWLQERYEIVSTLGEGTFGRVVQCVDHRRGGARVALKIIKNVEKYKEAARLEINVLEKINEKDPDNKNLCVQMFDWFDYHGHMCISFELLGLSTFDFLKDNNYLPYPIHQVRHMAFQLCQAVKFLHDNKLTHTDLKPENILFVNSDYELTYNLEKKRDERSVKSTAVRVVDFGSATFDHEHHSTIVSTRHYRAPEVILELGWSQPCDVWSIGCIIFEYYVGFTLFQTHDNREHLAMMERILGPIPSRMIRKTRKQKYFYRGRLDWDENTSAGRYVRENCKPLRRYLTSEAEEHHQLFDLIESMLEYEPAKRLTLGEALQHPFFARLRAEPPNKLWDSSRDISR
CLK1, sequence (P49759 whole entry): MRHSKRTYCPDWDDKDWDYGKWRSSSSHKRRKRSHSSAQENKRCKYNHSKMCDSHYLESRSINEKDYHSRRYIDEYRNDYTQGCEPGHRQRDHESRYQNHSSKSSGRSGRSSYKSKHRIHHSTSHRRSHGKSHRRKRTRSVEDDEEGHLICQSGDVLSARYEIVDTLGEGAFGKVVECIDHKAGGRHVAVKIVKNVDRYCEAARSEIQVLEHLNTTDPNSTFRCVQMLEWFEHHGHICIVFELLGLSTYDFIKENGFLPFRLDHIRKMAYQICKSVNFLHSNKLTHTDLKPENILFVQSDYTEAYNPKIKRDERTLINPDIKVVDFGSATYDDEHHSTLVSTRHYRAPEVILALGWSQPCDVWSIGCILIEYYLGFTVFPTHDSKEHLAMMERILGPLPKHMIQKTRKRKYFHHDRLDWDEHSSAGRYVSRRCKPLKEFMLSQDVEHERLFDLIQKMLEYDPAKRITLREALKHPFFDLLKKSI

| IC50 (ALK) [nM] | IC50 (CLK1) [nM] | IC50 (CLK3) [nM] | IC50 (CLK4) [nM] | IC50 (CLK2) [nM] | IC50 [1] [nM] | IC50 (EGFR L858R mutant) [nM] | IC50 (EGFR Δ746-750 mutant) [nM] | IC50 (EGFR (D770_N771insNPG)) [nM] | IC50 [2] [nM] | IC50 (EGFR WT) [nM] | IC50 (EGFR L858R/T790M mutant) [nM] | Compound |
| --- | --- | --- | --- | --- | --- | --- | --- | --- | --- | --- | --- | --- |
| 5.79 | 0.332 | 0.862 | 0.225 | 36.5 |  |  |  |  |  |  |  | CCc1nn(C)c2c1/C=C/c1n[nH]c3ccc(cc13)-c1cnn(C)c1OCCOC2 [Example 300, (17E)-16-ethyl-8,14-dimethyl-2,8,10,11,13,14-hexahydro-3,5-etheno[1,4]dioxacyclopentadecino[10,11-c:15,14-c′:6,7-c″]tripyrazole] |
| 29 |  |  |  |  |  |  |  |  |  |  |  | CCNC(=O)Cn1nc(C)c2c1COCCOc1c(cnn1C)-c1ccc3[nH]nc(c3c1)/C=C/2 [Example 301, 2-[(17E)-8,16-dimethyl-2,10,11,13-tetrahydro-3,5-etheno[1,4]dioxacyclopentadecino[10,11-c:15,14-c′:6,7-c′]tripyrazol-14(8H)-yl]-N-ethylacetamide] |
| 59.9 | 1.04 | 0.322 | 0.636 | 34.9 |  |  |  |  |  |  |  | Cc1snc2c1/C=C/c1n[nH]c3ccc(cc13)-c1cnn(C)c1OCCOC2 [Example 322, (17E)-8,16-dimethyl-2,8,10,11-tetrahydro-13H-3,5-ethenodipyrazolo[3′,4′:10,11;4″,3″:14,15] [1,4]dioxacyclopentadecino[6,7-c][1,2]thiazole] |
| 27.5 |  |  |  |  |  |  |  |  |  |  |  | Cc1nn(C)c2c1/C=C/c1n[nH]c3ccc(cc13)-c1cnn(C)c1OCCOC2 [Example 303, (17E)-8,14,16-trimethyl-2,8,10,11,13,14-hexahydro-3,5-etheno[1,4]dioxacyclopentadecino[10,11-c:15,14-c′:6,7-c″]tripyrazole] |
| 19.9 | 1.19 | 1.23 | 1.33 | 1000 |  |  |  |  |  |  |  | Cn1nc(C#N)c2c1COCCOc1c(cnn1C)-c1ccc3[nH]nc(c3c1)/C=C/2 [Example 302, (17E)-8,14-dimethyl-2,8,10,11,13,14-hexahydro-3,5-etheno[1,4]dioxacyclopentadecino[10,11-c:15,14-c′:6,7-c″]tripyrazole-16-carbonitrile] |
| 32.2 | 0.324 | 0.2 | 0.155 | 69.7 |  |  |  |  |  |  |  | Cc1onc2c1/C=C/c1n[nH]c3ccc(cc13)-c1cnn(C)c1OCCOC2 [Example 320, (17E)-8,16-dimethyl-2,8,10,11-tetrahydro-13H-3,5-ethenodipyrazolo[3′,4′:10,11;4″,3″:14,15] [1,4]dioxacyclopentadecino[6,7-c][1,2]oxazole] |
| 5.05 |  |  |  |  | 60.5 | 182 | 218 | 1490 | 425 | 766 | 24.7 | CCc1nn(C)c2c1/C=C/c1n[nH]c3ccc(cc13)-c1cnn(C)c1O[C@@H](C)COC2 [Example 319, (10S,17E)-16-ethyl-8,10,14-trimethyl-2,8,10,11,13,14-hexahydro-3,5-etheno[1,4]dioxacyclopentadecino[10,11-c:15,14-c′:6,7-c″]tripyrazole] |

Second part, the compound before the results:

| Compound | IC50 (ALK) [nM] | IC50 (CLK1) [nM] | IC50 (CLK3) [nM] | IC50 (CLK4) [nM] | IC50 (CLK2) [nM] | IC50 [1] [nM] | IC50 (EGFR L858R mutant) [nM] | IC50 (EGFR Δ746-750 mutant) [nM] | IC50 (EGFR (D770_N771insNPG)) [nM] | IC50 [2] [nM] | IC50 (EGFR WT) [nM] | IC50 (EGFR L858R/T790M mutant) [nM] |
| --- | --- | --- | --- | --- | --- | --- | --- | --- | --- | --- | --- | --- |
| CCOc1nn(CCO)c2c1/C=C/c1n[nH]c3cc(F)c(cc13)-c1cnn(C)c1O[C@@H](C)CN(CC)C2 [Example 288, 2-[(10S,17E)-16-ethoxy-12-ethyl-19-fluoro-8,10-dimethyl-2,8,10,11,12,13-hexahydro-14H-3,5-ethenotripyrazolo[3,4-f:3′,4′-j:4″,3″- n][1,4]oxazacyclopentadecin-14-yl]ethan-1-ol] | 1.82 | 0.32 | 131 | 1.31 | 0.24 |  |  |  |  |  |  |  |
| CC(C)Oc1nn(CCO)c2c1/C=C/c1n[nH]c3ccc(cc13)-c1cnn(C)c1O[C@@H](C(F)F)CN(C)C2 (single isomer, unassigned) [Ex. 275] | 1.46 | 0.8 | 241 | 2.25 | 1.03 |  |  |  |  |  |  |  |
| CCN1Cc2c(c(OC)nn2[C@@H](C)CO)/C=C/c2n[nH]c3cc(F)c(cc23)-c2cnn(C)c2O[C@H](C)C1 [Example 289, (2S)-2-[(10R,17E)-12-ethyl-19-fluoro-16-methoxy-8,10-dimethyl-2,8,10,11,12,13-hexahydro-14H-3,5-ethenotripyrazolo[3,4-f:3′,4′-j:4″,3″-n][1,4]oxazacyclopentadecin-14-yl]propan-1-ol] | 15.4 |  |  |  |  |  |  |  |  |  |  |  |
| CC(C)Oc1nn(CCO)c2c1/C=C/c1n[nH]c3cc(F)c(cc13)-c1cnn(C)c1O[C@@H](C)[C@H]1CCCN1C2 (single isomer, unassigned) [Example 256] | 2 | 1.38 | 94.5 | 4.05 | 1.35 |  |  |  |  |  |  |  |
| Cc1nn(C)c2c1/C=C/c1n[nH]c3ccc(cc13)-c1cnn(C)c1O[C@@H](C)CCO2 [Ex. 35, (10S,17E)-8,10,14,16-tetramethyl-2,11,12,14-tetrahydro-8H,10H-3,5-etheno[1,5]dioxacyclopentadecino[10,11-c:15,14-c′:6,7-c″ ]tripyrazole] | 6.93 |  |  |  |  | 30.9 | 135 | 101 | 1040 | 99.6 | 584 |  |
| Cc1nn(CCO)c2c1/C=C/c1n[nH]c3ccc(cc13)-c1cnn(C)c1OCCCO2 [Ex. 22, 2-[(17E)-8,16-dimethyl-2,8,11,12-tetrahydro-10H,14H-3,5-etheno[1,5]dioxacyclopentadecino[10,11-c:15,14-c′:6,7-c″]tripyrazol-14-yl]ethan-1-ol] | 1.35 |  |  |  |  | 0.54 | 4.49 | 3.84 | 94.8 | 5.1 | 158 | 1.87 |
| Cc1nn(C)c2c1/C=C/c1n[nH]c3ccc(cc13)-c1cnn(C)c1OCCCO2 [Ex. 8, (17E)-8,14,16-trimethyl-2,11,12,14-tetrahydro-8H,10H-3,5-etheno[1,5]dioxacyclopentadecino[10,11-c:15,14-c′:6,7-c″]tripyrazole] | 2.09 |  |  |  |  | 24.3 | 104 | 44.8 | 377 |  | 884 |  |
| CCOc1nn(CCO)c2c1/C=C/c1n[nH]c3cc(F)c(cc13)-c1cnn(C)c1O[C@H](C)CN(CC)C2 [Ex. 277, 2-[(10R,17E)-16-ethoxy-12-ethyl-19-fluoro-8,10-dimethyl-2,8,10,11,12,13-hexahydro-14H-3,5-ethenotripyrazolo[3,4-f:3′,4′-j:4″,3″-n][1,4]oxazacyclopentadecin-14-yl]ethan-1-ol] | 9.87 | 4.28 | 51.1 | 2.77 | 2.99 |  |  |  |  |  |  |  |
| CCn1ncc2c1O[C@@H](C)CN(C)Cc1c(c(OC(C)C)nn1CCO)/C=C/c1n[nH]c3ccc-2cc13 [Example 169, 2-{(10S,17E)-8-ethyl-10,12-dimethyl-16-[(propan-2-yl)oxy]-2,8,10,11,12,13-hexahydro-14H-3,5-ethenotripyrazolo[3,4-f:3′,4′-j:4″,3″- n][1,4]oxazacyclopentadecin-14-yl}ethan-1-ol] |  | 0.47 | 346 | 1.13 | 0.49 | 1.26 | 2.01 | 3.24 | 36.1 | 1.6 | 19.3 | 0.48 |
| CN1CCC(c2ccc3c(c2)O[C@@H]2CCN(CCOc4c(cnn4C)-c4ccc5[nH]nc(c5c4)/C=C/3)C2=O)CC1 [Example 112, (10R,16E)-3-methyl-13-(1-methylpiperidin-4-yl)-3,5,6,9,10,19-hexahydro-8H-20,22-etheno-7,10-methanodipyrazolo[3,4-i:4′,3′-m][1,8,5]benzodioxazacyclooctadecin-25-one] |  | 0.17 | 0.19 | 0.5 | 0.04 | 0.98 | 1.31 | 0.61 | 1.12 | 2.75 | 8.28 | 0.21 |
